Assays:
[1] = test system: rat mixed glial culture; assay: Neurogenesis promoting effect in rat mixed glial culture (neuronal differentiation, beta-tubulin III ELISA); format: cell-based; conditions: Rattus norvegicus, 72 h, 1 μM compound + rhIGF-1 100 ng/ml, 3 days; control (only rhIGF-1) = 100%; absorbance 450 nm; read-out: Ratio of absorbance of compound-supplemented group to control (%)
Experimental: The hippocampus and the cerebral cortex were excised from each of 3-day-old SD rats. A cell suspension was prepared therefrom using a neuron dispersion kit (Sumitomo Bakelite Co., Ltd., MB-X9901) and inoculated at concentration of 10^5 cells/well to a 96-well plate coated with type I collagen (AGC Techno Glass Co., Ltd., 4860-010). The cells were cultured in a growth medium (D-MEM/F12 containing 10% FBS and PS) at 37° C. for 4 days under 5% CO2 conditions.
After the culture, the medium was replaced by a differentiation medium (D-MEM/F12 containing PS), and rhIGF-1 (R&D Systems, 291-G1-250, final concentration: 100 ng/ml) and 1 μM compound were added thereto. The cells were further cultured for 3 days. The cultured cells were fixed in 4% paraformaldehyde-PBS (Muto Pure Chemicals Co., Ltd.), subjected to membrane permeation treatment with 0.1% Triton X-100 PBS, and blocked with Block Ace solution (DS Pharma Biomedical Co., Ltd., UK-B80). Anti-neuron-specific class III beta-tubulin Antibody (R&D Systems, MAB1195, clone Tuj-1) was diluted 1000-fold and used as a primary antibody. Anti-Mouse Ig, HRP-Linked F(ab′)2 Fragment Sheep (GE Healthcare, NA9310) was diluted 10000-fold and used as a secondary antibody. A plate washer (BIO-TEK INSTRUMENTS ELX405) was used in washing operation. TMB Microwell Peroxidase Substrate System (Kirkegaard & Perry Laboratories, 50-76-00) was used in color reaction, which was performed for 10 minutes and stopped by addition of 1 M phosphoric acid. Absorbance at 450 nm was measured using a plate reader (Labsystems Multiskan BICHROMATIC).
The rate of increase in the absorbance of the compound-supplemented group (compound+rhIGF-1) relative to that of a compound-unsupplemented group (control, only rhIGF-1) as 100% was determined in terms of % control.

[2] = test system: Tg2576 mice; assay: Cognitive function improving effect in novel object recognition test; format: in vivo, mouse; conditions: 10 mg/kg/day orally for 3 consecutive weeks, female Tg2576 mice; recovery ratio relative to wild type and vehicle
Experimental: Eight- to 9-month-old female Tg2576 mice were used, and wild-type littermates were used as control mice. All the mice were raised in a room having a temperature of 23±3° C. and 12-hour light/dark cycles (light phase: 7 a.m. to 7 p.m.) and allowed to freely take food (Oriental Yeast Co., Ld.) and water.
The body weights and blood glucose levels of the Tg2576 mice were measured, and these mice were divided (n=11-15) so that there was no difference among groups. 10 mg/kg/day compound or vehicle (0.5% methylcellulose solution, Wako Pure Chemical Industries, Ltd.) was orally administered to each mouse for 3 consecutive weeks. The following novel object recognition test was conducted (acquisition trial and retention trial were carried under blind): 4 or 5 mice in one cage were placed in a box of 30×30×30 cm and acclimatized for 30 minutes in the absence of objects. On the next day, two identical objects were placed in diagonally opposite corners of the box. The mice were placed in the box, and the time spent exploring the objects for 5 minutes was recorded (acquisition trial). 24 hours later, one of the objects was in turn replaced by a novel one, and the same test as the acquisition trial was conducted (retention trial). During the test, places were appropriately changed between the two objects to minimize environmental/behavioral psychological factors. The ratio of the time spent exploring the novel object to the whole exploring time was calculated as an index showing cognitive functions and used as preference index (PI). Furthermore, a recovery ratio was calculated according to the following formula:
[Recovery ratio]=[[PI of Tg2576 mice treated by each compound]−[PI of Tg2576 mice treated by vehicle]]/[[PI of wild type mice]−[PI of Tg2576 mice treated by vehicle]]×100(%).
In this context, individuals that explored neither of the objects in the acquisition trial and the retention trial were excluded from this test.

[3] = test system: Akt; assay: Akt protein degradation inhibitory effect in rat mixed glial culture (Western blot); format: cell-based; conditions: 1 μM compound + rhIGF-1 100 ng/ml, 10 minutes; unsupplemented = 100%, only rhIGF-1 = 0%; Akt corrected with ERK
Experimental: The mixed glial cells used in Experimental Example 1 were inoculated at a concentration of 4×10^6 cells/well to a 6-well plate coated with type I collagen (AGC Techno Glass Co., Ltd.). The cells were cultured in a growth medium (D-MEM/F12 containing 10% FES and PS) at 37° C. for 4 days under 5% CO2 conditions. Then, the medium was replaced by a serum-free medium (D-MEM/F12 containing PS), and the cells were cultured at 37° C. for 4 days under 5% CO2 conditions to remove serum.
Next, rhIGF-1 (R&D Systems, 291-G1-250, final concentration: 100 ng/ml) and 1 μM compound were added thereto and reacted for 10 minutes in a temperature-controlled water bath set to 37° C. […]
Proteins were collected from the cell extracts using trichloroacetic acid and quantified according to the Lowry method. […] The cell extracts were diluted with RIPA so that the protein levels were constant among the test solutions on the basis of the measured values (10 μg/lane). […] Bands were detected using ImmunoStar reagent (Wako Pure Chemical Industries, Ltd., 291-55203) and an X-ray film. The results were quantified using GS-800 Calibrated Densitometer manufactured by Bio-Rad Laboratories, Inc., and band intensity was digitized by multiplying the absorbance of the Akt- or ERK-1&2-derived band by an area. […]

Row | Structure (SMILES) | activity at 1 µM [1] [%] | Preference index (% recovery) [2] [%] | Akt degradation inhibitory rate (%) [3] [%]
1 | COc1ccc(N2CCN(c3ccc(OC)nc3-c3ccc(N(C)C)cc3)CC2)cc1 [Example 19, 4-{6-methoxy-3-[4-(4-methoxyphenyl)piperazin-1-yl]pyridin-2-yl}-N,N-dimethylaniline] | 263 | 118.2 | 97
2 | COc1ccc(N2CCN(c3ccc(F)cc3)CC2)c(-c2ccc(N(C)C)cc2)n1 [Example 12, 4-{3-[4-(4-fluorophenyl)piperazin-1-yl]-6-methoxypyridin-2-yl}-N,N-dimethylaniline] | 345 | 70.3 | –
3 | COc1ccc(N2CCN(c3ccc(C)cc3)CC2)c(-c2ccc(N(C)C)cc2)n1 [Example 25, 4-{6-methoxy-3-[4-(4-methylphenyl)piperazin-1-yl]pyridin-2-yl}-N,N-dimethylaniline] | 276 | 97.0 | 140
4 | CCOc1ccc(-c2nc(OC)ccc2N2CCN(c3ccc(OC)cc3)CC2)cc1 [Example 55, 1-[2-(4-ethoxyphenyl)-6-methoxypyridin-3-yl]-4-(4-methoxyphenyl)piperazine] | 316 | 19.8 | –
5 | CCOc1ccc(-c2nc(OC)ccc2N2CCN(c3ccc(OC)cc3)CC2)cc1F [Example 62, 1-[2-(4-ethoxy-3-fluorophenyl)-6-methoxypyridin-3-yl]-4-(4-methoxyphenyl)piperazine] | 439 | – | –
6 | COc1ccc(N2CCN(c3ccc(OC)nc3-c3ccoc3)CC2)cc1 [Example 160, 1-(2-furan-3-yl-6-methoxypyridin-3-yl)-4-(4-methoxyphenyl)piperazine] | 220 | – | –
7 | COc1ccc(CC2CN(c3ccc(OC)nc3-c3ccc(N(C)C)cc3)CCN2C)cc1 (stereo not shown) [Example 34, 4-{6-methoxy-3-[3-(4-methoxybenzyl)-4-methylpiperazin-1-yl]pyridin-2-yl}-N,N-dimethylaniline] | 783 | – | –
8 | COc1ccc(N2CCN(c3ccc(Cl)cc3)CC2)c(-c2ccc(N(C)C)cc2)n1 [Example 24, 4-{3-[4-(4-chlorophenyl)piperazin-1-yl]-6-methoxypyridin-2-yl}-N,N-dimethylaniline] | 462 | – | –
9 | COc1ccc(N2CCOC(Cc3cccc(C(F)(F)F)c3)C2)c(-c2ccc(N(C)C)cc2)n1 (stereo not shown) [Example 9, 4-(6-methoxy-3-{2-[3-(trifluoromethyl)benzyl]morpholin-4-yl}pyridin-2-yl)-N,N-dimethylaniline] | 321 | – | –
10 | COc1ccc(N2CCN(c3ccc(OC)nc3-c3ccc(N(C)C)cc3)CCC2=O)cc1 [Example 92, 1-{2-[4-(dimethylamino)phenyl]-6-methoxypyridin-3-yl}-4-(4-methoxyphenyl)-1,4-diazepan-5-one] | 449 | – | –
